Counter-ions that a name gives are not always drawn.
Columns and labels:
healthy adult subjects = assay: Multiple ascending dose study: heart rate, blood pressure, QTc; assay type: in vivo, human; conditions: for Maximum post-dose QTc, Change from Baseline Mean / Maximum post-dose QTc, Change from Baseline Median / Maximum post-dose QTc, Change from Baseline Min, Max / Maximum post-dose QTc, On Treatment Mean (SD): Day 1 to Day 23; for Minimum post-dose Diastolic BP, Change from Baseline Mean / Minimum post-dose Diastolic BP, Change from Baseline Median / Minimum post-dose Diastolic BP, Change from Baseline Min, Max / Minimum post-dose Diastolic BP, On Treatment Mean (SD) / Minimum post-dose Heart Rate, Change from Baseline Mean / Minimum post-dose Heart Rate, Change from Baseline Median / Minimum post-dose Heart Rate, Change from Baseline Min, Max / Minimum post-dose Heart Rate, On Treatment Mean (SD) / Minimum post-dose Systolic BP, Change from Baseline Mean / Minimum post-dose Systolic BP, Change from Baseline Median / Minimum post-dose Systolic BP, Change from Baseline Min, Max / Minimum post-dose Systolic BP, On Treatment Mean: Day 1 to Day 28
Procedure: A randomized, double-blind, placebo-controlled, sequential, ascending, multiple dose study to assess the safety, tolerability, and pharmacokinetics of the L-arginine salt of Compound 1 administered to healthy adult subjects was conducted. This study was designed to evaluate the safety, tolerability, pharmacokinetics, and pharmacodynamics of the L-arginine salt of Compound 1.
Cohort 1 was dosed with 0.7 mg (by administering two 0.35 mg formulations) for 21 days. Cohort 2 was dosed with 1.35 mg (by administering both a 0.35 mg formulation and a 1 mg formulation) for 21 days. Cohort 3 was dosed with 2.0 mg for 21 days. Cohort 4 was dosed with 0.35 mg for 7 days and then with 2.0 mg for 14 days. Cohort 5 was dosed with 0.5 for 7 days and then with 3.0 mg (by administering both a 1 mg formulation and a 2 mg formulation) for 14 days.
The following safety assessments were conducted: physical examinations with ophthalmoscopy, clinical laboratory tests (serum chemistry, coagulation, and urinalysis), vital signs, continuous telemetry (12 lead ECG), safety ECGs, pulmonary function testing (PFT), serum protein electrophoresis (SPEP) and serum immunoelectrophoresis (IEP), and adverse event reporting.

[1] = tested on: patients with ulcerative colitis; assay: Fecal calprotectin and C-reactive protein in ulcerative colitis study; assay type: in vivo, human
Procedure: The modified Mayo Clinic score (modified MCS) included endoscopic, rectal bleeding (RB), and stool frequency (SF) subscores. […] Endoscopic improvement was defined as a subscore ≤1. […] Comparisons between subgroups were assessed with a Wilcoxon rank-sum test (2-sided P values). Analysis of correlation between variables was conducted using the Spearman's rank coefficient (2-sided P values).

[2] = 0.35 mg for 7 days then 2.0 mg for 14 days
[3] = 0.5 mg for 7 days then 3.0 mg for 14 days

## O=C(O)C[C@H]1CCc2c1[nH]c1ccc(OCc3ccc(C4CCCC4)c(C(F)(F)F)c3)cc21 [L-arginine salt of Compound 1]
Healthy adult subjects; [2]
  Maximum post-dose QTc, Change from Baseline Mean: −0.10 MS
  Maximum post-dose QTc, Change from Baseline Median: 0.50 MS
  Maximum post-dose QTc, Change from Baseline Min, Max: −19.00 to 17.00 MS
  Maximum post-dose QTc, On Treatment Mean (SD): 411.10 (19.88) MS
  Minimum post-dose Diastolic BP, Change from Baseline Mean: −7.90 mmHg
  Minimum post-dose Diastolic BP, Change from Baseline Median: −6.00 mmHg
  Minimum post-dose Diastolic BP, Change from Baseline Min, Max: −19.00 to −1.00 mmHg
  Minimum post-dose Diastolic BP, On Treatment Mean (SD): 50.80 (5.65) mmHg
  Minimum post-dose Heart Rate, Change from Baseline Mean: −10.60 BPM
  Minimum post-dose Heart Rate, Change from Baseline Median: −7.00 BPM
  Minimum post-dose Heart Rate, Change from Baseline Min, Max: −35.00 to 3.00 BPM
  Minimum post-dose Heart Rate, On Treatment Mean (SD): 52.00 (4.74) BPM
  Minimum post-dose Systolic BP, Change from Baseline Mean: −13.00 mmHg
  Minimum post-dose Systolic BP, Change from Baseline Median: −13.00 mmHg
  Minimum post-dose Systolic BP, Change from Baseline Min, Max: −28.00 to 0.00 mmHg
  Minimum post-dose Systolic BP, On Treatment Mean: 94.30 mmHg
Healthy adult subjects; [3]
  Maximum post-dose QTc, Change from Baseline Mean: 5.60 MS
  Maximum post-dose QTc, Change from Baseline Median: 5.00 MS
  Maximum post-dose QTc, Change from Baseline Min, Max: −5.00 to 15.00 MS
  Maximum post-dose QTc, On Treatment Mean (SD): 425.10 (13.90) MS
  Minimum post-dose Diastolic BP, Change from Baseline Mean: −6.30 mmHg
  Minimum post-dose Diastolic BP, Change from Baseline Median: −7.00 mmHg
  Minimum post-dose Diastolic BP, Change from Baseline Min, Max: −13.00 to 3.00 mmHg
  Minimum post-dose Diastolic BP, On Treatment Mean (SD): 50.20 (4.21) mmHg
  Minimum post-dose Heart Rate, Change from Baseline Mean: −7.30 BPM
  Minimum post-dose Heart Rate, Change from Baseline Median: −6.50 BPM
  Minimum post-dose Heart Rate, Change from Baseline Min, Max: −14.00 to −2.00 BPM
  Minimum post-dose Heart Rate, On Treatment Mean (SD): 53.80 (4.73) BPM
  Minimum post-dose Systolic BP, Change from Baseline Mean: −7.80 mmHg
  Minimum post-dose Systolic BP, Change from Baseline Median: −5.00 mmHg
  Minimum post-dose Systolic BP, Change from Baseline Min, Max: −18.00 to 5.00 mmHg
  Minimum post-dose Systolic BP, On Treatment Mean: 93.20 mmHg
Healthy adult subjects; 0.7 mg for 21 days
  Maximum post-dose QTc, Change from Baseline Mean: 3.60 MS
  Maximum post-dose QTc, Change from Baseline Median: 3.50 MS
  Maximum post-dose QTc, Change from Baseline Min, Max: −8.00 to 16.00 MS
  Maximum post-dose QTc, On Treatment Mean (SD): 418.40 (16.56) MS
  Minimum post-dose Diastolic BP, Change from Baseline Mean: −6.10 mmHg
  Minimum post-dose Diastolic BP, Change from Baseline Median: −6.00 mmHg
  Minimum post-dose Diastolic BP, Change from Baseline Min, Max: −16.00 to 2.00 mmHg
  Minimum post-dose Diastolic BP, On Treatment Mean (SD): 56.00 (8.31) mmHg
  Minimum post-dose Heart Rate, Change from Baseline Mean: −5.50 BPM
  Minimum post-dose Heart Rate, Change from Baseline Median: −5.00 BPM
  Minimum post-dose Heart Rate, Change from Baseline Min, Max: −12.00 to −1.00 BPM
  Minimum post-dose Heart Rate, On Treatment Mean (SD): 54.20 (4.05) BPM
  Minimum post-dose Systolic BP, Change from Baseline Mean: −9.70 mmHg
  Minimum post-dose Systolic BP, Change from Baseline Median: −9.50 mmHg
  Minimum post-dose Systolic BP, Change from Baseline Min, Max: −16.00 to −1.00 mmHg
  Minimum post-dose Systolic BP, On Treatment Mean: 96.10 mmHg
Healthy adult subjects; 1.35 mg for 21 days
  Maximum post-dose QTc, Change from Baseline Mean: 8.20 MS
  Maximum post-dose QTc, Change from Baseline Median: 6.00 MS
  Maximum post-dose QTc, Change from Baseline Min, Max: −5.00 to 25.00 MS
  Maximum post-dose QTc, On Treatment Mean (SD): 423.60 (16.14) MS
  Minimum post-dose Diastolic BP, Change from Baseline Mean: −5.20 mmHg
  Minimum post-dose Diastolic BP, Change from Baseline Median: −7.50 mmHg
  Minimum post-dose Diastolic BP, Change from Baseline Min, Max: −11.00 to 6.00 mmHg
  Minimum post-dose Diastolic BP, On Treatment Mean (SD): 53.70 (4.03) mmHg
  Minimum post-dose Heart Rate, Change from Baseline Mean: −6.20 BPM
  Minimum post-dose Heart Rate, Change from Baseline Median: −5.00 BPM
  Minimum post-dose Heart Rate, Change from Baseline Min, Max: −18.00 to 3.00 BPM
  Minimum post-dose Heart Rate, On Treatment Mean (SD): 54.40 (4.09) BPM
  Minimum post-dose Systolic BP, Change from Baseline Mean: −8.90 mmHg
  Minimum post-dose Systolic BP, Change from Baseline Median: −8.00 mmHg
  Minimum post-dose Systolic BP, Change from Baseline Min, Max: −22.00 to 3.00 mmHg
  Minimum post-dose Systolic BP, On Treatment Mean: 100.10 mmHg
Healthy adult subjects; 2.0 mg for 21 days
  Maximum post-dose QTc, Change from Baseline Mean: 4.00 MS
  Maximum post-dose QTc, Change from Baseline Median: 4.50 MS
  Maximum post-dose QTc, Change from Baseline Min, Max: −8.00 to 13.00 MS
  Maximum post-dose QTc, On Treatment Mean (SD): 421.20 (10.61) MS
  Minimum post-dose Diastolic BP, Change from Baseline Mean: −11.20 mmHg
  Minimum post-dose Diastolic BP, Change from Baseline Median: −9.00 mmHg
  Minimum post-dose Diastolic BP, Change from Baseline Min, Max: −21.00 to −4.00 mmHg
  Minimum post-dose Diastolic BP, On Treatment Mean (SD): 45.30 (7.42) mmHg
  Minimum post-dose Heart Rate, Change from Baseline Mean: −8.30 BPM
  Minimum post-dose Heart Rate, Change from Baseline Median: −7.50 BPM
  Minimum post-dose Heart Rate, Change from Baseline Min, Max: −16.00 to −3.00 BPM
  Minimum post-dose Heart Rate, On Treatment Mean (SD): 51.00 (4.78) BPM
  Minimum post-dose Systolic BP, Change from Baseline Mean: −9.80 mmHg
  Minimum post-dose Systolic BP, Change from Baseline Median: −9.00 mmHg
  Minimum post-dose Systolic BP, Change from Baseline Min, Max: −18.00 to −4.00 mmHg
  Minimum post-dose Systolic BP, On Treatment Mean: 90.80 mmHg
[1]; 1 mg, did not reach statistical significance, P=0.08
  decrease in FC versus placebo across the study: 0.71
[1]; 1 mg, mixed-model for repeat measures, P=0.02
  decrease in CRP compared with placebo across the study: 0.72
[1]; 2 mg
  median FC at week 12, patients who did not achieve remission: 1129 µg/g
[1]; 2 mg, P<0.001 vs no remission
  median FC at week 12, patients who achieved remission: 62.0 µg/g
[1]; 2 mg, mixed-model for repeat measures, P<0.001
  decrease in FC compared with placebo across the study: 0.42
[1]; 2 mg, mixed-model for repeat measures, P=0.01
  decrease in CRP compared with placebo across the study: 0.70
[1]; 2 mg, sustained through week 12
  time at which decreases in FC and CRP levels versus placebo were first observed: 4 week
